Measurements from patent US12383572B2, “Administration of an anti-activin-a compound to a subject” (AMGEN INC., priority 2013, dated 2025).

Legend:
TOV-21G xenografts = assay: TOV-21G xenograft, sActRIIB and 5-FU chemotherapy combination; type: in vivo, human; details: nude mice; sActRIIB 10 mg/kg SC 1x/week, 5-FU 50 mg/kg IP 3 cycles, alone or together
Description: TOV-21G xenograft. 5×10^6 TOV-21G ovarian cancer cells were implanted subcutaneously into individual female athymic nu/nu mice (Harlan). Treatment was initiated at day 12 after tumor implantation, when the average tumor volume reached approximately 150 mm^3. The mice received PBS, sActRIIB (30 mg/kg, SC, 1×/week) or activin-A antibody (30 mg/kg, SC, 2×/week). In a separate chemotherapy combination experiment, the mice were treated with PBS, sActRIIB (10 mg/kg, SC, 1×/week), 5-FU (50 mg/kg, IP, 3 cycles, 4 daily injections per cycle) or sActRIIB and 5-FU combination at the same doses above. For all xenograft experiments, the tumor sizes were measured longitudinally by using an electronic caliper. Immediately prior to the 1st dose, the tumor-bearing mice were randomized to ensure even distribution in tumor sizes across different groups. Tumor volumes (mm^3) were calculated as tumor length (mm)×tumor width (mm)×tumor height (mm). Tumor weights were determined by necropsy.

[1] = sActRIIB and doxorubicin in TOV-21G tumor-bearing nude mice: body weight and muscle mass; type: in vivo, mouse
Description: (§1) The objective of the present study was to examine the effect of pharmacological administration of sActRIIB, doxorubicin (dox), and sActRIIB plus doxorubicin, respectively, on body weight, tumor growth and muscle mass in nude mice implanted with TOV-21G ovarian xenograft tumors. Eight-week-old female Athymic nude mice were SC injected with 0.2 mL of 5×10^6 TOV-21G cells into the left site of the lower flank of the mice. After 10 days of tumor implantation, the mice were divided into 4 groups by body weight and tumor size and then treated with vehicle, sActRIIB, doxorubicin or the combination of sActRIIB and doxorubicin. In addition, a group of non-tumor bearing mice was used as normal control and received PBS.
(§2) Mice were weighed weekly. Body weight data were recorded longitudinally. Tumor size was measured longitudinally by using an electronic caliper. The following formula was used to calculate actual tumor volume (Tomayko M and Reynolds C, 1989): (Volume of a rectangular solid tumor: Tumor volume (mm^3)=length (mm)×width (mm)×height (mm) of tumor). At the end of the study, mice in all groups were subjected to terminal necropsy and lean carcass weight (excluding skin, adipose tissue, internal organs, and head) was determined by using standard anatomical dissection procedures. […] All results were expressed as the mean±SEM (standard error of the mean). […]

[2] = tested on: TOV-21G ovarian xenograft tumors; assay: sActRIIB and doxorubicin in TOV-21G tumor-bearing nude mice: tumor size and weight; type: in vivo, human; details: sActRIIB 10 mg/kg SC 1x/week, DOX 2 mg/kg IP 1x/week; 4-week study
Description: as §1, §2

[3] = Activin-A antibody and doxorubicin in TOV-21G tumor-bearing nude mice: body weight and muscle mass; type: in vivo, mouse
Source text: (§3) The objective of this study was to examine the effects of pharmacological administration of activin-A antibody, doxorubicin, and activin-A antibody plus doxorubicin, on body weight, tumor growth and muscle mass in nude mice implanted with TOV-21G ovarian xenograft tumors. The activin-A antibody used was the same as described in the Materials section above. Eight-week-old female Athymic nude mice were each injected with 2.2×10^6 TOV-21G cells subcutaneously (SC) into the left site of the lower flank of the mice. On day 12 post tumor implantation, the mice were divided into 4 groups by body weight and tumor size and then treated with vehicle, activin-A antibody, doxorubicin, or the combination of activin-A antibody and doxorubicin. In addition, a group of non-tumor bearing mice was used as normal control and received PBS.
(§4) Mice were weighed weekly. Body weight data were recorded longitudinally. Tumor size was measured longitudinally by using an electronic caliper (Fred V. Fowler Company, Inc.). […] At the end of the study, mice in all groups were subjected to terminal necropsy and lean carcass weight (excluding skin, adipose tissue, internal organs, and head) was determined by using standard anatomical dissection procedures. […] All results were expressed as the mean±SEM. […]

[4] = tested on: TOV-21G ovarian xenograft tumors; assay: Activin-A antibody and doxorubicin in TOV-21G tumor-bearing nude mice: tumor size and weight; type: in vivo, human; details: activin-A antibody 20 mg/kg SC 1x/week, DOX 4 mg/kg IP 1x/week; vs vehicle-treated
Source text: as §3, §4

Compound	rate of tumor growth (TOV-21G xenografts)	body weight ([1]; TOV-21G tumor-bearing nude mice, sActRIIB 10 mg/kg SC 1x/week, DOX 2 mg/kg IP 1x/week)	lean carcass weight and calf muscle mass ([1]; TOV-21G-implanted nude mice, necropsy at end of 4-week experiment)	tumor size and tumor weight vs vehicle-treated TOV-21G group [2]	body weight ([3]; TOV-21G tumor-bearing nude mice, activin-A antibody 20 mg/kg SC 1x/week, DOX 4 mg/kg IP 1x/week)	lean carcass weight and calf muscle mass ([3]; TOV-21G-implanted nude mice, necropsy at end of 5-week experiment)	tumor size and tumor weight (day 47) / tumor growth [4]
O=c1[nH]cc(F)c(=O)[nH]1 [Antibody 5-FU, 5-Fluorouracil, reference compound]	decreased the rate of tumor growth significantly						
COc1cccc2c1C(=O)c1c(O)c3c(c(O)c1C2=O)C[C@@](O)(C(=O)CO)C[C@@H]3O[C@H]1C[C@H](N)[C@H](O)[C@H](C)O1 [Doxorubicin, doxorubicin, reference compound]		further decline (non-statistically significant) in body weight	no effect on the loss of lean carcass weight and calf muscle mass	significantly reduced tumor size and tumor weight	further decline (non-statistically significant) in body weight	no effect on the loss of lean carcass weight and calf muscle mass	capable of inhibiting TOV-21G tumor growth
